Results from paper PMC5218480 (PLoS ONE, 2017).

Test system: MV-4-11 cells
Test: Gene expression microarray analysis (Affymetrix PrimeView) and GSEA
Type: cell-based, human
Design: RFU PODN (11730768_x_at) / Fold change /veh PODN (11730768_x_at) / RFU LINC00158 (11744669_a_at) / Fold change /veh LINC00158 (11744669_a_at) / RFU DUSP10 (11751237_a_at) / Fold change /veh DUSP10 (11751237_a_at) / RFU ID3 (11757404_x_at) / Fold change /veh ID3 (11757404_x_at) / RFU PLEKHG5 (11737974_s_at) / Fold change /veh PLEKHG5 (11737974_s_at) / RFU LRRC4B (11730491_at) / Fold change /veh LRRC4B (11730491_at) / RFU GIMAP4 (11747438_a_at) / Fold change /veh GIMAP4 (11747438_a_at) / RFU KRT8 (11758183_x_at) / Fold change /veh KRT8 (11758183_x_at) / RFU CNN1 (11734310_a_at) / Fold change /veh CNN1 (11734310_a_at) / RFU VPS37D (11726825_at) / Fold change /veh VPS37D (11726825_at) / RFU C10orf10 (11716522_x_at) / Fold change /veh C10orf10 (11716522_x_at) / RFU KIR2DL2 /// KIR2DL4 /// KIR2DL5A /// KIR2DL5B /// KIR2DS1 /// KIR2DS2 /// KIR2DS3 /// KIR2DS4 /// KIR3DL3 /// KIR3DL3 /// KIR3DS1 (11738374_at) / Fold change /veh KIR2DL2 /// KIR2DL4 /// KIR2DL5A /// KIR2DL5B /// KIR2DS1 /// KIR2DS2 /// KIR2DS3 /// KIR2DS4 /// KIR3DL3 /// KIR3DL3 /// KIR3DS1 (11738374_at) / RFU C1QL1 (11718748_at) / Fold change /veh C1QL1 (11718748_at) / RFU TMPRSS4 (11747572_a_at) / Fold change /veh TMPRSS4 (11747572_a_at) / RFU HAMP (11756126_x_at) / Fold change /veh HAMP (11756126_x_at) / RFU RNFT2 (11725882_a_at) / Fold change /veh RNFT2 (11725882_a_at) / RFU NR4A2 (11747474_a_at) / Fold change /veh NR4A2 (11747474_a_at) / RFU ABCC12 (11746883_a_at) / Fold change /veh ABCC12 (11746883_a_at) / RFU TMEM136 (11760407_x_at) / Fold change /veh TMEM136 (11760407_x_at) / RFU CLDN22 /// WWC2 (11732394_at) / Fold change /veh CLDN22 /// WWC2 (11732394_at) / RFU HLA-DPB1 (11760878_x_at) / Fold change /veh HLA-DPB1 (11760878_x_at) / RFU SPINT1 (11716480_a_at) / Fold change /veh SPINT1 (11716480_a_at) / RFU GAP43 (11754022_s_at) / Fold change /veh GAP43 (11754022_s_at) / RFU A4GNT (11735810_at) / Fold change /veh A4GNT (11735810_at) / RFU PRB3 (11715151_x_at) / Fold change /veh PRB3 (11715151_x_at) / RFU TUBB4B (11761932_at) / Fold change /veh TUBB4B (11761932_at) / RFU CAPN14 (11732068_a_at) / Fold change /veh CAPN14 (11732068_a_at) / RFU TMCC2 (11721928_a_at) / Fold change /veh TMCC2 (11721928_a_at) / RFU IRGQ (11745062_a_at) / Fold change /veh IRGQ (11745062_a_at) / RFU FAM174B (11720279_a_at) / Fold change /veh FAM174B (11720279_a_at) / RFU TMPRSS4 (11748680_a_at) / Fold change /veh TMPRSS4 (11748680_a_at) / RFU FAM212B (11763350_a_at) / Fold change /veh FAM212B (11763350_a_at) / RFU PLEKHG5 (11743358_a_at) / Fold change /veh PLEKHG5 (11743358_a_at) / RFU ZSCAN30 (11745921_a_at) / Fold change /veh ZSCAN30 (11745921_a_at) / RFU CMKLR1 (11741424_a_at) / Fold change /veh CMKLR1 (11741424_a_at) / RFU LOC101060620 /// MAPK8IP1 (11723275_at) / Fold change /veh LOC101060620 /// MAPK8IP1 (11723275_at) / RFU SPTSSB (11747773_x_at) / Fold change /veh SPTSSB (11747773_x_at) / RFU PRSS12 (11739890_at) / Fold change /veh PRSS12 (11739890_at) / RFU BIN1 (11741810_x_at) / Fold change /veh BIN1 (11741810_x_at) / RFU WNT11 (11732464_a_at) / Fold change /veh WNT11 (11732464_a_at) / RFU C10orf10 (11716521_a_at) / Fold change /veh C10orf10 (11716521_a_at) / RFU C5orf56 (11738089_at) / Fold change /veh C5orf56 (11738089_at) / RFU CYB561 (11721691_x_at) / Fold change /veh CYB561 (11721691_x_at) / RFU ANKRD19P (11752326_a_at) / Fold change /veh ANKRD19P (11752326_a_at) / RFU OR2T12 /// OR2T33 /// OR2T8 (11738714_s_at) / Fold change /veh OR2T12 /// OR2T33 /// OR2T8 (11738714_s_at) / RFU VCAN (11748164_a_at) / Fold change /veh VCAN (11748164_a_at) / RFU JSRP1 (11732532_at) / Fold change /veh JSRP1 (11732532_at) / RFU KRTAP10-11 (11738290_x_at) / Fold change /veh KRTAP10-11 (11738290_x_at) / RFU MYO3A (11730013_a_at) / Fold change /veh MYO3A (11730013_a_at) / RFU EBF3 (11725865_a_at) / Fold change /veh EBF3 (11725865_a_at) / RFU CAMK2N1 (11719241_x_at) / Fold change /veh CAMK2N1 (11719241_x_at) / RFU C5orf56 (11738088_a_at) / Fold change /veh C5orf56 (11738088_a_at) / RFU OLFML3 (11715873_a_at) / Fold change /veh OLFML3 (11715873_a_at) / RFU LOC100653217 /// NTM (11731650_a_at) / Fold change /veh LOC100653217 /// NTM (11731650_a_at) / RFU MAPK11 (11762145_a_at) / Fold change /veh MAPK11 (11762145_a_at) / RFU FIZ1 (11724087_x_at) / Fold change /veh FIZ1 (11724087_x_at) / RFU OASL (11726364_x_at) / Fold change /veh OASL (11726364_x_at) / RFU SOX15 (11748057_x_at) / Fold change /veh SOX15 (11748057_x_at) / RFU CD79A (11719716_a_at) / Fold change /veh CD79A (11719716_a_at) / RFU HIST1H1D (11736915_at) / Fold change /veh HIST1H1D (11736915_at) / RFU CASKIN2 (11723855_a_at) / Fold change /veh CASKIN2 (11723855_a_at) / RFU LOC730098 (11760151_x_at) / Fold change /veh LOC730098 (11760151_x_at) / RFU OR4N2 (11742367_at) / Fold change /veh OR4N2 (11742367_at) / RFU PRRT2 (11749266_a_at) / Fold change /veh PRRT2 (11749266_a_at) / RFU SNX32 (11753110_a_at) / Fold change /veh SNX32 (11753110_a_at) / RFU CDHR5 (11726645_a_at) / Fold change /veh CDHR5 (11726645_a_at) / RFU RCAN1 (11760418_a_at) / Fold change /veh RCAN1 (11760418_a_at) / RFU FAM167A (11723789_a_at) / Fold change /veh FAM167A (11723789_a_at) / RFU FAM26E (11764081_at) / Fold change /veh FAM26E (11764081_at) / RFU ISYNA1 (11749810_s_at) / Fold change /veh ISYNA1 (11749810_s_at) / RFU ACY1 (11761880_at) / Fold change /veh ACY1 (11761880_at) / RFU 11764098_at / Fold change /veh 11764098_at / RFU SAMD14 (11745864_x_at) / Fold change /veh SAMD14 (11745864_x_at) / RFU NPB (11741838_a_at) / Fold change /veh NPB (11741838_a_at) / RFU TMPRSS6 (11731388_a_at) / Fold change /veh TMPRSS6 (11731388_a_at) / RFU KRTAP10-2 (11738614_at) / Fold change /veh KRTAP10-2 (11738614_at) / RFU ARHGAP8 /// PRR5-ARHGAP8 (11727945_x_at) / Fold change /veh ARHGAP8 /// PRR5-ARHGAP8 (11727945_x_at) / RFU KRTAP5-7 /// NADSYN1 (11734609_at) / Fold change /veh KRTAP5-7 /// NADSYN1 (11734609_at) / RFU RASL12 (11751679_a_at) / Fold change /veh RASL12 (11751679_a_at) / RFU CDKN2B (11736163_a_at) / Fold change /veh CDKN2B (11736163_a_at) / RFU PRF1 (11729649_at) / Fold change /veh PRF1 (11729649_at) / RFU, ZNF638 /// ZNF638-IT1 / Fold change vs veh, ZNF638 /// ZNF638-IT1 / RFU, PANK3 / Fold change vs veh, PANK3 / RFU, SH3YL1 / Fold change vs veh, SH3YL1 / RFU, ZEB2 / Fold change vs veh, ZEB2 / RFU, NRIP1 / Fold change vs veh, NRIP1 / RFU, PTTG1IP / Fold change vs veh, PTTG1IP / RFU, CAPN2 / Fold change vs veh, CAPN2 / RFU, MED14 / Fold change vs veh, MED14 / RFU, SNORA58 / Fold change vs veh, SNORA58 / RFU, C1orf63 / Fold change vs veh, C1orf63 / RFU, LRRFIP1 / Fold change vs veh, LRRFIP1 / RFU, NDUFAF7 / Fold change vs veh, NDUFAF7 / RFU, SLC12A2 / Fold change vs veh, SLC12A2 / RFU, IBTK / Fold change vs veh, IBTK / RFU, ESF1 / Fold change vs veh, ESF1 / Fold change vs veh, TMEM50B / RFU, TAOK1 / Fold change vs veh, TAOK1 / RFU, ACBD3 / Fold change vs veh, ACBD3 / RFU, TMA16 / Fold change vs veh, TMA16 / RFU, RWDD3 / Fold change vs veh, RWDD3 / RFU, BCAT1 / Fold change vs veh, BCAT1 / RFU, EDEM3 / Fold change vs veh, EDEM3 / RFU, TMEM33 / Fold change vs veh, TMEM33 / RFU, WDR75 / Fold change vs veh, WDR75 / RFU, AHCTF1 / Fold change vs veh, AHCTF1 / RFU, TFRC / Fold change vs veh, TFRC / RFU, ZDHHC17 / Fold change vs veh, ZDHHC17 / RFU, NOM1 / Fold change vs veh, NOM1 / RFU, ARL8B / Fold change vs veh, ARL8B / RFU, ZBTB11 / Fold change vs veh, ZBTB11 / RFU, TAMM41 / Fold change vs veh, TAMM41 / RFU, KIAA1704 /// LOC100996395 / Fold change vs veh, KIAA1704 /// LOC100996395 / RFU, ING1 / Fold change vs veh, ING1 / RFU, TRMT61B / Fold change vs veh, TRMT61B / RFU, FUBP3 / Fold change vs veh, FUBP3 / RFU, TP53 / Fold change vs veh, TP53 / RFU, TNKS2 / Fold change vs veh, TNKS2 / RFU, ZFP14 / Fold change vs veh, ZFP14 / RFU, ACTR2 / Fold change vs veh, ACTR2 / RFU, PPP3R1 / Fold change vs veh, PPP3R1 / RFU, PIK3R1 / Fold change vs veh, PIK3R1 / RFU, HNRNPA1 / Fold change vs veh, HNRNPA1 / RFU, RNF170 / Fold change vs veh, RNF170 / RFU, ZNF28 / Fold change vs veh, ZNF28 / RFU, RNGTT / Fold change vs veh, RNGTT / RFU, OGT / Fold change vs veh, OGT / RFU, BRD1 / Fold change vs veh, BRD1 / RFU, MARS / Fold change vs veh, MARS / RFU, ZNF655 / Fold change vs veh, ZNF655 / RFU, FAHD1 / Fold change vs veh, FAHD1 / RFU, BDP1 / Fold change vs veh, BDP1 / RFU, LRRCC1 / Fold change vs veh, LRRCC1 / RFU, ARID1A / Fold change vs veh, ARID1A / RFU, ZNF146 / Fold change vs veh, ZNF146 / RFU, ZNF330 / Fold change vs veh, ZNF330 / RFU, GPN3 / Fold change vs veh, GPN3 / RFU, C9orf123 / Fold change vs veh, C9orf123 / RFU, N4BP2L2 / Fold change vs veh, N4BP2L2 / RFU, ARFIP1 / Fold change vs veh, ARFIP1 / RFU, FAM179B / Fold change vs veh, FAM179B / RFU, BCL10 / Fold change vs veh, BCL10 / RFU, UHRF1BP1L / Fold change vs veh, UHRF1BP1L / RFU, BET1 / Fold change vs veh, BET1 / RFU, CNOT2 / Fold change vs veh, CNOT2 / RFU, ZNF268 / Fold change vs veh, ZNF268 / Fold change vs veh, ZNF507 / RFU, DGCR2 / Fold change vs veh, DGCR2 / RFU, WDSUB1 / Fold change vs veh, WDSUB1 / Fold change vs veh, HSP90B1 /// MIR3652 / RFU, ADSS / Fold change vs veh, ADSS / RFU, GK / Fold change vs veh, GK / RFU, ZNF148 / Fold change vs veh, ZNF148 / RFU, TAF9 / Fold change vs veh, TAF9 / RFU, SLC1A5 / Fold change vs veh, SLC1A5 / RFU, SLMO2 / Fold change vs veh, SLMO2 / RFU, ABCC4 / Fold change vs veh, ABCC4 / RFU, LOC101060439 /// RAP1B / Fold change vs veh, LOC101060439 /// RAP1B / RFU, RFX7 / Fold change vs veh, RFX7 / RFU, GTPBP10 / Fold change vs veh, GTPBP10 / RFU, CNEP1R1 / Fold change vs veh, CNEP1R1 / RFU, BIVM-ERCC5 /// ERCC5 / Fold change vs veh, BIVM-ERCC5 /// ERCC5 / RFU, ILF3 / Fold change vs veh, ILF3 / RFU 11762660_at / Fold change /veh 11762660_at / RFU VCAN (11757783_s_at) / Fold change /veh VCAN (11757783_s_at) / RFU DDX43 (11728927_at) / Fold change /veh DDX43 (11728927_at) / RFU KRT8 (11758188_x_at) / Fold change /veh KRT8 (11758188_x_at) / RFU NKD1 (11759106_at) / Fold change /veh NKD1 (11759106_at) / RFU SRD5A1 (11742802_a_at) / Fold change /veh SRD5A1 (11742802_a_at) / RFU TPSAB1 /// TPSB2 (11721975_s_at) / Fold change /veh TPSAB1 /// TPSB2 (11721975_s_at) / RFU GSTM3 (11746129_a_at) / Fold change /veh GSTM3 (11746129_a_at) / RFU IL23R (11737362_x_at) / Fold change /veh IL23R (11737362_x_at) / RFU TMEM51 (11727254_a_at) / Fold change /veh TMEM51 (11727254_a_at) / RFU PIWIL2 (11732686_x_at) / Fold change /veh PIWIL2 (11732686_x_at) / RFU ORM1 (11744905_x_at) / Fold change /veh ORM1 (11744905_x_at) / RFU CCDC152 (11743942_at) / Fold change /veh CCDC152 (11743942_at) / RFU ECM1 (11717891_a_at) / Fold change /veh ECM1 (11717891_a_at) / RFU IL23R (11748794_a_at) / Fold change /veh IL23R (11748794_a_at) / RFU TNFAIP8L3 (11732012_x_at) / Fold change /veh TNFAIP8L3 (11732012_x_at) / RFU MBOAT4 (11741988_at) / Fold change /veh MBOAT4 (11741988_at) / RFU 11764193_at / Fold change /veh 11764193_at / RFU TMEM53 (11763286_at) / Fold change /veh TMEM53 (11763286_at) / RFU MAGEB2 (11727129_at) / Fold change /veh MAGEB2 (11727129_at) / RFU TMEM200A (11744735_a_at) / Fold change /veh TMEM200A (11744735_a_at) / RFU CCDC152 (11751479_a_at) / Fold change /veh CCDC152 (11751479_a_at) / RFU FAM211A (11726209_a_at) / Fold change /veh FAM211A (11726209_a_at) / RFU RGS16 (11746705_a_at) / Fold change /veh RGS16 (11746705_a_at) / RFU VCAN (11755009_s_at) / Fold change /veh VCAN (11755009_s_at) / RFU RHOB (11743442_s_at) / Fold change /veh RHOB (11743442_s_at) / RFU RGS16 (11720943_a_at) / Fold change /veh RGS16 (11720943_a_at) / RFU RGS16 (11720944_at) / Fold change /veh RGS16 (11720944_at) / RFU, VPS4B / Fold change vs veh, VPS4B / RFU, CREB1 / Fold change vs veh, CREB1 / RFU, DNAJC13 / Fold change vs veh, DNAJC13 / RFU, GNAQ / Fold change vs veh, GNAQ / RFU, CDK5R1 / Fold change vs veh, CDK5R1 / RFU, ZRANB3 / Fold change vs veh, ZRANB3 / RFU, CUL4A / Fold change vs veh, CUL4A / RFU, CCNY / Fold change vs veh, CCNY / RFU, UFL1 / Fold change vs veh, UFL1 / RFU, COG3 / Fold change vs veh, COG3 / RFU, DIAPH2 / Fold change vs veh, DIAPH2 / RFU, SKA2 / Fold change vs veh, SKA2 / RFU, AFF3 / Fold change vs veh, AFF3 / RFU, LMF1 / Fold change vs veh, LMF1 / RFU, IPO11 / Fold change vs veh, IPO11 / RFU, DFFB / Fold change vs veh, DFFB / RFU, FOXP1 / Fold change vs veh, FOXP1 / RFU, CARD8 / Fold change vs veh, CARD8 / RFU, STRN3 / Fold change vs veh, STRN3 / RFU, ADK / Fold change vs veh, ADK / RFU, RASSF2 / Fold change vs veh, RASSF2 / RFU, WIPF1 / Fold change vs veh, WIPF1 / RFU, LARP1B / Fold change vs veh, LARP1B / RFU, RASA1 / Fold change vs veh, RASA1 / RFU, RB1 / Fold change vs veh, RB1 / RFU, PPFIA1 / Fold change vs veh, PPFIA1 / RFU, MAT2A / Fold change vs veh, MAT2A / RFU, CCT5 / Fold change vs veh, CCT5 / RFU, WDR92 / Fold change vs veh, WDR92 / RFU, CUX1 / Fold change vs veh, CUX1 / RFU, TTC7A / Fold change vs veh, TTC7A / RFU, TMEM135 / Fold change vs veh, TMEM135 / RFU, DEPTOR / Fold change vs veh, DEPTOR / RFU, CPM / Fold change vs veh, CPM / RFU, DNAJB6 / Fold change vs veh, DNAJB6 / RFU, CACNA2D3 / Fold change vs veh, CACNA2D3 / RFU, DTX4 / Fold change vs veh, DTX4 / RFU, TFCP2 / Fold change vs veh, TFCP2 / RFU, GMCL1 /// GMCL1P1 / Fold change vs veh, GMCL1 /// GMCL1P1 / RFU, AEBP2 / Fold change vs veh, AEBP2 / RFU, SNHG1 /// SNORD22 /// SNORD25 /// SNORD26 /// SNORD27 /// SNORD28 /// SNORD29 /// SNORD31 / Fold change vs veh, SNHG1 /// SNORD22 /// SNORD25 /// SNORD26 /// SNORD27 /// SNORD28 /// SNORD29 /// SNORD31 / Fold change (Aza/veh), C12orf56 (ProbeSet 11735607_a_at) / Fold change (ACY-1035/veh), C12orf56 (ProbeSet 11735607_a_at) / Fold change (Aza/veh), FGFR1OP (ProbeSet 11751329_s_at) / Fold change (ACY-1035/veh), FGFR1OP (ProbeSet 11751329_s_at) / Fold change (Aza/veh), VPS36 (ProbeSet 11739960_a_at) / Fold change (ACY-1035/veh), VPS36 (ProbeSet 11739960_a_at) / RFU SYPL1 (11715823_x_at) / Fold change /veh SYPL1 (11715823_x_at) / RFU IGFBP7 (11715501_s_at) / Fold change /veh IGFBP7 (11715501_s_at) / RFU REEP3 (11722064_at) / Fold change /veh REEP3 (11722064_at) / RFU IGLL1 (11728026_x_at) / Fold change /veh IGLL1 (11728026_x_at): dose or concentration left out as unconfirmed
Conditions: MV-4-11 cells, 48 hours

## Nc1ncn([C@@H]2O[C@H](CO)[C@@H](O)[C@H]2O)c(=O)n1 [azacitidine]
  Fold change /veh 11764098_at: 1.18
